This is an account of results in patent US5370861A, “Iodinated esters contrast medium and use” (Nycomed Imaging AS, priority 1989, dated 1994).

A short description of data set [1]: In vitro biodegradation control: hydrolysis in phosphate buffered saline (PBS), pH 7.4. Particulars: read-out: substance hydrolysed in PBS. Format: physicochemical. The procedure: (§1) The powdered product of Example 1 was suspended in Seronorm (0.5 mgml) at pH 7.4 and agitated at 37° C. As a control the experiment was also performed in phosphate buffered saline (PBS) at pH 7.4. At different time points samples were taken from the supernatant after centrifugation of the vial (4000 rpm, 10 rain). The release of Isopaque (5-(N-acetylamino)-3-(N-acetyl-N-methylamino)-2,4,6-triiodobenzene carboxylic acid) was analysed by HPLC. After 6 hours 100% of the substance was hydrolysed. In PBS only 1.1% was hydrolysed during the same period.

Data set [2] can be described thus: In vitro biodegradation: hydrolysis with release of Isopaque in Seronorm, pH 7.4, 37° C (HPLC). Format: in vitro ADME. As to conditions: seronorm serum, Seronorm (0.5 mg/ml), read-out: substance hydrolysed after 6 hours in Seronorm. The procedure: The following Examples are given by way of illustration only. Seronorm is a test serum available from Nycomed AS, Oslo, Norway.
as §1

A further data set concerns hepatocytes. As to conditions: in vivo, iv; cited from earlier work.
The next data set concerns liver. In words: CT studies in rabbit: contrast enhancement in the liver. The data set is classed as in vivo, rabbits. As to conditions: dynamic CT, iohexol 350 mg I/ml. How it is done: Contrast enhancement in the liver was investigated in rabbits. Anaesthetized animals were placed in a Siemens CT scanner and injected with particles of Pharmaceutical Formulation 4 in the marginal ear vein. Particle concentration was 28 mg/ml. A particle dose corresponding to 75 mg I/kg gave an increase in liver contrast from a basal level of […] to about 120 HU. Thus, the contrast enhancement on this dose level was about 35-40 HU. […] The average iodine content in these livers was 1.1 mg I/g liver. […] About 8 times more iodine had to be injected in these animals to achieve the same contrast enhancement of the liver. With this vascular contrast medium, the enhancement was transient, lasting for one or two minutes.

With `CCOC(=O)OC(C)OC(=O)c1c(I)c(NC(C)=O)c(I)c(N(C)C(C)=O)c1I` (stereo not drawn) [Example 1, 1-(Ethyloxycarbonyloxy)ethyl 5-(N-acetylamino)-3-(N-acetyl-N-methylamino)-2,4,6-triiodobenzenecarboxylate], the degraded at 6 h in data set [1] stood at 1.1%. The metabolised at 6 h in data set [2] was 100%.

With `CCOC(=O)c1c(I)cc(I)c(NC(=O)CCCCC(=O)Nc2c(I)cc(I)c(C(=O)OCC)c2I)c1I` [ethyl ester of iodipamide, ethyl ester of the water soluble X-ray contrast agent, iodipamide], in the data set on hepatocytes, the “lipid vacuoles in the hepatocytes” value is “increase in lipid vacuoles in the hepatocytes”.

In the case of `CC(=O)N(CC(O)CO)c1c(I)c(C(=O)NCC(O)CO)c(I)c(C(=O)NCC(O)CO)c1I` (stereo not drawn) [iohexol], in the data set with liver, the duration of enhancement result was “one or two”; the “iodine to be injected to achieve the same contrast enhancement of the liver, relative to Pharmaceutical Formulation 4” value was “About 8 times”; the “nature of enhancement with vascular contrast medium” value is on record as “transient”.
